This passage reports IC50 results from patent publication US8937071B2, “Compounds as rearranged during transfection (RET) inhibitors” (GlaxoSmithKline Intellectual Property Development Limited, priority 2013, dated 2015).

Structures can show the parent of a compound that is named as a salt. Where two headings read alike, the source gives them in different places. Some results are limits rather than exact numbers.

One assay deals with TT cells. Nature of the assay: RET kinase cell-based proliferation assay. Also noted: species or system human. As to conditions: 192 h, read-out: RET IC50. From the text: RET Kinase Cell-Based Proliferation Assay
In the next assay the target is RET kinase (Homo sapiens, UniProt P07949, C634W). The experiment in a line: RET kinase cell-based mechanistic assay (constitutive RET kinase phosphorylation in TT cells).
[1] abbreviates: human RET kinase cell-based proliferation assay, TT cells, eight days, CellTiter-Glo, Table 4.

RET kinase, sequence (P07949 29-1114 C634W): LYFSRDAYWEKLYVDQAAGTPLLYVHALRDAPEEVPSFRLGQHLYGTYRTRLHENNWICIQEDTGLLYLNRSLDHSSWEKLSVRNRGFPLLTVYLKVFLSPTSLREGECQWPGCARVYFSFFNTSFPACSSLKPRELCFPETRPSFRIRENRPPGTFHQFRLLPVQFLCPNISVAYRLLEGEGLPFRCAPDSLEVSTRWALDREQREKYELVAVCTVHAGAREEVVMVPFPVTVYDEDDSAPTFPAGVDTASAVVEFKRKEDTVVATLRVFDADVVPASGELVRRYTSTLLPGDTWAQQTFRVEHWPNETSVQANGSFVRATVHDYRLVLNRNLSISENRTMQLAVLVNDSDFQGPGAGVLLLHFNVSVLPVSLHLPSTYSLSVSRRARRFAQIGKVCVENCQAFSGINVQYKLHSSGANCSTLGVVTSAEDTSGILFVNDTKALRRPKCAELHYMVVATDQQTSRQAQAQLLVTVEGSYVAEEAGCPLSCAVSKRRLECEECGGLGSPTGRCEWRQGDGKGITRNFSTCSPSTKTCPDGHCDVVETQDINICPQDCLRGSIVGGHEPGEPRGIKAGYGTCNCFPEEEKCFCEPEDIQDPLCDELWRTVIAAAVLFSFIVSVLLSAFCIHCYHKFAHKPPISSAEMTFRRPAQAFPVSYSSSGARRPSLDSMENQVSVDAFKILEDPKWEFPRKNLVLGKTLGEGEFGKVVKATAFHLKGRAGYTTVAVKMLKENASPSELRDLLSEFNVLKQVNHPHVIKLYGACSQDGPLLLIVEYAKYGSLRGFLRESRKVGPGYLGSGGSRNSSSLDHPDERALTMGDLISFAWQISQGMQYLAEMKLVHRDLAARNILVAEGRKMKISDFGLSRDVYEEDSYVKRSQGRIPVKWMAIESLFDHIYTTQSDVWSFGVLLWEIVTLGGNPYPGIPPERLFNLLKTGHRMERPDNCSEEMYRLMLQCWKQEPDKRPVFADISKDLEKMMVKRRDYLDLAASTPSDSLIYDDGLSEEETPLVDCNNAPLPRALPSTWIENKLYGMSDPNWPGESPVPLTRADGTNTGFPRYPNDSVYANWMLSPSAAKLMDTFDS

A word on the IC50: it is the concentration that inhibits the measured activity by half. With `CCOc1cc(-c2ccc(CC(=O)Nc3ccc(CC(C)(C)CO)c(C(F)(F)F)c3)cc2F)c[nH]c1=O` [Example 6, 2-(4-(5-Ethoxy-6-oxo-1,6-dihydropyridin-3-yl)-3-fluorophenyl)-N-(4-(3-hydroxy-2,2-dimethylpropyl)-3-(trifluoromethyl)phenyl)acetamide], the IC50 with TT cells (setting [1]) and against RET kinase was less than 100 nM each time.

As for `CCOc1cc(-c2ccc(CC(=O)Nc3cc(C(F)(F)F)cc(C(F)(F)F)c3)c(F)c2)c[nH]c1=O` [Example 25, N-(3,5-bis(trifluoromethyl)phenyl)-2-(4-(5-ethoxy-6-oxo-1,6-dihydropyridin-3-yl)-2-fluorophenyl)acetamide], the IC50 in the assay on TT cells (setting [1]) was in the range of 500 to 10000 nM; at RET kinase, 100 to 500 nM.

With `CCOc1cc(-c2ccc(CC(=O)Nc3ccc(CC(C)(C)CO)c(C(F)(F)F)c3)c(F)c2)c[nH]c1=O` [Example 5, 2-(4-(5-Ethoxy-6-oxo-1,6-dihydropyridin-3-yl)-2-fluorophenyl)-N-(4-(3-hydroxy-2,2-dimethylpropyl)-3-(trifluoromethyl)phenyl)acetamide], the concentration for half-maximal inhibition (IC50) in the assay with TT cells (setting [1]) and on RET kinase was less than 100 nM each time.

With `CCOc1cc(=O)[nH]cc1-c1ccc(CC(=O)Nc2ccc(C#N)c(C(F)(F)F)c2)cc1F` [Example 7, N-(4-Cyano-3-(trifluoromethyl)phenyl)-2-(4-(4-ethoxy-6-oxo-1,6-dihydropyridin-3-yl)-3-fluorophenyl)acetamide], the IC50 in the assay on TT cells (setting [1]) and at RET kinase was 100 to 500 nM throughout.

As to `CCOc1cc(-c2ccc(CC(=O)Nc3cc(C(C)(C)C(F)(F)F)on3)c(F)c2)c[nH]c1=O` [Example 19, 2-(4-(5-Ethoxy-6-oxo-1,6-dihydropyridin-3-yl)-2-fluorophenyl)-N-(5-(1,1,1-trifluoro-2-methylpropan-2-yl)isoxazol-3-yl)acetamide], the IC50 in the assay with TT cells (setting [1]) and on RET kinase was less than 100 nM in each case.

On to `CCOc1cc(-c2ccc(CC(=O)Nc3cnc(C(C)(C)O)c(C(F)(F)F)c3)c(F)c2)c[nH]c1=O` [Example 1, 2-(4-(5-Ethoxy-6-oxo-1,6-dihydropyridin-3-yl)-2-fluorophenyl)-N-(6-(2-hydroxypropan-2-yl)-5-(trifluoromethyl)pyridin-3-yl)acetamide], for which the IC50 in the assay with TT cells (setting [1]) and on RET kinase was 100 to 500 nM in each case.

Consider `CCOc1cc(-c2ccc(CC(=O)Nc3ccc(CN(C)C)c(C(F)(F)F)c3)c(F)c2)c[nH]c1=O` [Example 17, N-(4-((Dimethylamino)methyl)-3-(trifluoromethyl)phenyl)-2-(4-(5-ethoxy-6-oxo-1,6-dihydropyridin-3-yl)-2-fluorophenyl)acetamide, Hydrochloride], for which the IC50 in the assay with TT cells (Homo sapiens, TT) is 100 to 500 nM; against RET kinase, less than 100 nM.

Consider `CCOc1cc(-c2ccc(CC(=O)Nc3ccc(C#N)c(C(F)(F)F)c3)c(F)c2)c[nH]c1=O` [Example 9, N-(4-Cyano-3-(trifluoro-methyl)phenyl)-2-(4-(5-ethoxy-6-oxo-1,6-dihydro-pyridin-3-yl)-2-fluorophenyl)acetamide], for which the concentration for half-maximal inhibition (IC50) in the assay with TT cells (setting [1]) and at RET kinase was 100 to 500 nM each time.

Consider `CCOc1cc(-c2ccc(CC(=O)Nc3ccc(OCCO)c(C(F)(F)F)c3)c(F)c2)c[nH]c1=O` [Example 13, 2-(4-(5-Ethoxy-6-oxo-1,6-dihydropyridin-3-yl)-2-fluorophenyl)-N-(4-(2-hydroxyethoxy)-3-(trifluoromethyl)phenyl)acetamide], for which the IC50 in the assay on TT cells (setting [1]) and against RET kinase was 100 to 500 nM each time.

For the compound `CCOc1cc(-c2ccc(CC(=O)Nc3ccc(CN4CCN(CC)CC4)c(C(F)(F)F)c3)c(F)c2)c[nH]c1=O` [Example 21, 2-(4-(5-Ethoxy-6-oxo-1,6-dihydropyridin-3-yl)-2-fluorophenyl)-N-(4-((4-ethylpiperazin-1-yl)methyl)-3-(trifluoromethyl)phenyl)acetamide, 2 Hydrochloride], the IC50 in the assay on TT cells (setting [1]) was less than 100 nM.

Consider `CCOc1cc(-c2ccc(CC(=O)Nc3ccc(Cl)c(Cl)c3)c(F)c2)c[nH]c1=O` [Example 18, N-(3,4-Dichlorophenyl)-2-(4-(5-ethoxy-6-oxo-1,6-dihydropyridin-3-yl)-2-fluorophenyl)acetamide], for which the IC50 in the assay on TT cells (setting [1]) and against RET kinase was 500 to 10000 nM in each case.

For `CCOc1cc(-c2ccc(CC(=O)Nc3ccc(C(N)=O)c(C(F)(F)F)c3)c(F)c2)c[nH]c1=O` [Example 23, 4-(2-(4-(5-ethoxy-6-oxo-1,6-dihydropyridin-3-yl)-2-fluorophenyl)acetamido)-2-(trifluoromethyl)benzamide], the half-maximal inhibitory concentration (IC50) in the assay with TT cells (setting [1]) and against RET kinase was 500 to 10000 nM each time.

Take `CCOc1ncc(NC(=O)Cc2ccc(-c3c[nH]c(=O)c(OCC)c3)cc2F)cc1C(F)(F)F` [Example 2, N-(6-Ethoxy-5-(trifluoromethyl)pyridin-3-yl)-2-(4-(5-ethoxy-6-oxo-1,6-dihydropyridin-3-yl)-2-fluorophenyl)acetamide, Hydrochloride]: the IC50 in the assay with TT cells (Homo sapiens, TT) was 100 to 500 nM; at RET kinase, less than 100 nM.

For `CCOc1cc(-c2ccc(CC(=O)Nc3cc(C(F)(F)F)c(F)cc3F)c(F)c2)c[nH]c1=O` [Example 24, N-(2,4-difluoro-5-(trifluoromethyl)phenyl)-2-(4-(5-ethoxy-6-oxo-1,6-dihydropyridin-3-yl)-2-fluorophenyl)acetamide], the IC50 fell in the range of 500 to 10000 nM in the assay on TT cells (setting [1]) and 100 to 500 nM on RET kinase.

On to `CCOc1cc(-c2ccc(CC(=O)Nc3cc(-n4cnc(C)c4)cc(C(F)(F)F)c3)c(F)c2)c[nH]c1=O` [Example 11, 2-(4-(5-Ethoxy-6-oxo-1,6-dihydropyridin-3-yl)-2-fluorophenyl)-N-(3-(4-methyl-1H-imidazol-1-yl)-5-(trifluoromethyl)phenyl)acetamide, Hydrochloride], for which the IC50 with TT cells (Homo sapiens, TT) is 100 to 500 nM; against RET kinase it was less than 100 nM.

For the compound `CCOc1cc(-c2ccc(CC(=O)Nc3ccc(Cl)c(C(F)(F)F)c3)c(F)c2)c[nH]c1=O` [Example 16, N-(4-Chloro-3-(trifluoromethyl)phenyl)-2-(4-(5-ethoxy-6-oxo-1,6-dihydropyridin-3-yl)-2-fluorophenyl)acetamide], the IC50 in the assay on TT cells (setting [1]) was less than 100 nM; at RET kinase it was 100 to 500 nM.

Regarding `CCOc1cc(-c2ccc(CC(=O)Nc3cc(C(F)(F)F)ccc3F)c(F)c2)c[nH]c1=O` [Example 26, 2-(4-(5-ethoxy-6-oxo-1,6-dihydropyridin-3-yl)-2-fluorophenyl)-N-(2-fluoro-5-(trifluoromethyl)phenyl)acetamide], in the assay with TT cells (setting [1]), the IC50 fell in the range of 500 to 10000 nM.
